The source of these data is patent US20240238460A1, “IMPROVED PROSTATE-SPECIFIC MEMBRANE ANTIGEN TARGETING RADIOPHARMACEUTICALS AND USES THEREOF” (TELIX PHARMACEUTICALS (INNOVATIONS) PTY LTD, priority 2021, published 2024).

Broadly, the Ki is the dissociation constant of the complex between target and ligand, obtained from inhibition or displacement.

One experiment addresses T1, PSMA (Homo sapiens, UniProt Q04609).
T1 construct: endogenous in cells; host or cells: LNCaP cells
The experiment in a line: Competitive binding experiments on LNCaP cells (competitor 2-PMPA), Ki by Cheng-Prusoff. Conditions: 1 h, calculated from IC50 with cheng-prusoff equation, values printed in parentheses. The procedure:
(§1) Phosphate buffer was prepared from 890 mg Na2PO4.2H2O in 9.5 mL water for injection and 0.5 mL 2 m NaOH. After dissolution of the salts, the buffer was sterile filtered, the pH was determined using pH stripes (pH=11.5-12.0). The labeling mixture consisted of 1 μl precursor solution (1 mg/ml in MeCH/H2O 20:50; approx. 1 nmol), 20 μl phosphate buffer, 10 μl […] (TCEP; 28.7 mg/mL in phosphate buffer; 0.1 molar solution) and 4-10 μL pertechnetate in saline (0.9% NaCl; generator cluate) containing an activity of approx. 7.5 MBq. The mixture was filled to 100 μl with saline (0.9% NaCl; 59-65 μL). The pH of the reaction mixture was 8.0-8.5 (tendency towards 8.5). The mixture was heated at 98° C. for 10 minutes. After cooling to room temperature, the mixture was diluted to 1 mL by addition of saline (0.9% NaCl, ligand concentration 1 μm). An aliquot was analyzed by HPLC to determine the radiochemical yield (RCY) (method B, see example 9). Aliquots of the product mixture containing the ^99mTc-labeled ligand were further diluted to a concentration of approx. 100 nM (precursor) in PBS with and without a 10000 fold excess of 2-(Phosphonomethyl)-pentandioic acid, 2-Phosphonomethyl pentanedioic acid (2-PMPA) as competitor.
For determination of Ki, competitive binding experiments were conducted. […] The cellular uptake was determined from the activity in the lysed fraction.

The subject of the next experiment is LNCaP cells. The experiment in a line: Cellular uptake experiments with 99mTc-labeled ligands in LNCaP cells (with and without 2-PMPA competitor). It counts as cell-based. The procedure: as §1
Cellular uptake experiments were conducted in analogy to previously described procedures (Lindner et al., Doi.: 10.2967/jnumed.118.210443). Briefly, LNCaP cells were seeded in 6-Well plates in RPMI medium containing 20% FBS (two day of incubation prior to the experiment) and grown to a confluency of 70-80%. For the uptake experiment, the medium was removed and the cells were incubated with 1 mL of a 1:99 dilution of the 100 nM product mixture dilutions (with and without competitor) described in Example 3. […] The cellular uptake was determined from the activity in the lysed fraction. The unspecific uptake was determined from the cellular uptake of the cells incubated with the ligand in presence of the competitor. […]

T1 sequence (Q04609 whole entry): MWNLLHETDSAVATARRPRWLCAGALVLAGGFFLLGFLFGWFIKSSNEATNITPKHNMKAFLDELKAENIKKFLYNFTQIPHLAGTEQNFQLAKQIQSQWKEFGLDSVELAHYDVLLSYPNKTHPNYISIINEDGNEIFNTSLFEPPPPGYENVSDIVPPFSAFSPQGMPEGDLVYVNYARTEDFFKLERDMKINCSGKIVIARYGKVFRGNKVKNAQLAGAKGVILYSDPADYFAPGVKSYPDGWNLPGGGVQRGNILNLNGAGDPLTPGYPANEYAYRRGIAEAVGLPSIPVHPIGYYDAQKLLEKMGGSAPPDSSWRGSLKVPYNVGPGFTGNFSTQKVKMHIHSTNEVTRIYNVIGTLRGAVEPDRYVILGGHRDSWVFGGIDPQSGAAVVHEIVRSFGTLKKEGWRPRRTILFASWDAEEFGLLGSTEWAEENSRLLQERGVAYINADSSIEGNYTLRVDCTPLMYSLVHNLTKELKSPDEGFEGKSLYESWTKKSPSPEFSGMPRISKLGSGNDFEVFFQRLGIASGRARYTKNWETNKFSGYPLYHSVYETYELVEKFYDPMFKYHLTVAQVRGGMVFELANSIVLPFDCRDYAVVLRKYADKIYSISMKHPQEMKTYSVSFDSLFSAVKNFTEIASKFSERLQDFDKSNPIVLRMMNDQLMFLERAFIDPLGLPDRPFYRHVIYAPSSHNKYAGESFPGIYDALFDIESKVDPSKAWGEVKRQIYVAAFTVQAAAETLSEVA

Consider “^99mTc-EDDA-HYNIC-iPSMA [[^99mTc]TLX-598]”, for which the Ki at PSMA was 38 nM. The same substance showed a Specific uptake with LNCaP cells (1 h, unspecific uptake subtracted from cellular uptake) of 18.7 ± 0.3 % AD/10^6 cells. Besides, the Unspecific uptake in the experiment on LNCaP cells (1 h incubation, in presence of 10000 fold excess 2-PMPA) came out at 1.64 ± 0.07 % AD/10^6 cells. The Uptake with LNCaP cells (1 h incubation, triplicate) was 20.3 ± 0.3 % AD/10^6 cells.
